Test results from patent US4732984A, “Piperazinoisothiazolones with psychotropic activity” (priority 1986, dated 1988).
Structures can show the parent of a compound that is named as a salt.

Assays:
[1] = target: limbic D-2 dopamine receptor (Rattus norvegicus, UniProt P61169); assay: biochemical; assay type: binding, rats; conditions: for Ki: rat limbic tissue, 0.3 nM 3H-spiroperidol, 37° C., 10 min, read-out: Limbic D-2 Binding (Ki nM)
Method: The compounds of the invention are further studied for their ability to inhibit limbic D-2 dopamine receptor binding. This in vitro assay measures the ability of the compounds tested to bind to the dopamine receptor sites.
Several rats are decapitated and the brains are rapidly removed. Limbic brain tissue (nucleus accumbens, septal area, olfactory tubercle) is dissected and homogenized on ice in 9 volumes of buffer (50 mM Tris-HCl, 120 mM NaCl, 5 mM KCl, 1 mM CaCl2, 1 mM MgCl2, 0.1% L-ascorbic acid, 10 μM pargyline HCl, pH 7.1) using a Polytron homogenizer at setting 5 for three 15-sec bursts. The homogenate is then diluted 4-fold with buffer and centrifuged at 30,000×g for 20 min, and the supernatant is discarded. The pellet is resuspended in the same volume of buffer and recentrifuged as before, again discarding the supernatant. This pellet is then resuspended in the same volume of buffer used in the homogenization, and the protein content of this preparation is assyed by the Lowry method. The homogenate is stored frozen at -70° C. until use.
Thirty μL of the homogenate (0.02-0.3 mg protein/sample) are incubated with 0.3 nM ^3 H-spiroperidol (New England Nuclear) and various concentrations of test drug in a final volume of 1 ml of the above buffer for 10 min in a 37° C. water bath. At the end of the incubation, 3 ml of cold 50 mM Tris-HCl, pH 7.7, are added to each tube, and the contents are rapidly vacuum-filtered through Whatman GF/B glass-fiber filters. The filters are then rapidly washed 3 times with 3 ml of the same buffer, placed in scintillation vials, and shaken for 15 min with 10 ml of Hydrofluor (National Diagnostics) scintillation cocktail. The vials are then counted in a Packard 460CD scintillation counter.
Specific binding is defined as total binding less binding in the presence of 1 μM (+)butaclamol. Binding in the presence of various concentrations of test drug is expressed as a per cent of specific binding when no drug is present.

[2] = Conditioned avoidance (discrete trial) test; assay type: in vivo, Male CD rats; conditions: for ED50: Rattus norvegicus; for Activity at 40 mg/kg: 40 mg/kg perorally administered
Method: The antipsychotic activity of the compounds of the invention is assessed via the conditioned avoidance (discrete trial) test. This test has excellent clinical correlation for antipsychotic activity.
Male CD rats (Charles River) maintained at approximately 400-450 gm body weight are used. Rats trained previously are placed in plexiglass experimental chambers equipped with a response lever, house light, and sonalert. A steel grid floor is wired for presentation of electric shock. Each trial consists of a fifteen-second warning tone (conditioned stimulus), continuing for an additional fifteen seconds accompanied by electric shock, (unconditioned stimulus). The rat can terminate a trial at any point by depression of the response lever. A response during the initial fifteen-second warning tone ends the trial before shock delivery and is considered an avoidance response, while a response occurring during shock delivery is an escape response. Trials are presented on a variable interval schedule of two minutes. The session consists of sixty trials. Animals are run two to three times weekly with control sessions always preceding a drug run, and with at least one day intervening, compounds are administered i.p. or p.o. at appropriate pre-treatment times to a minimum of five to six rats at each dose level over a range of doses.
The following experimental parameters are recorded by computer: (1) the number of intertrial interval responses, (2) the number of avoidance responses, (3) the number of escape responses, and (4) the number of trials in which no response occurred.
Response counts are summed over all subjects at a given dose. […] This number is expressed as a percentage of the total trials. Control performance is arbitrarily assigned a value of 100% for avoidance and the dose calculated to produce a 50% block in avoidance responding (AB50 ) is obtained from a dose-effect regression line fitted by the method of least squares. Potential antipsychotic compounds suppress avoidance responding and increase escape responding.

dopamine receptor = conditions: mice; 10 mg/kg s.c. apomorphine
[3] = Conditioned avoidance (shelf-jump response) test; assay type: in vivo, Male CD rats; conditions: Rattus norvegicus, ip, rats, read-out: AB50 (standard compounds)
From the text: Another test designed to determine the potential antipsychotic activity of the compounds of the invention is the conditioned avoidance (shelf-jump response) test.
Male CD rats (Charles River) maintained at approximately 400-450 gm body weight are used. […] A moveable wall, controlled by a motor, determines whether the rat has access to the shelf at any time during the experiment. The experimental chamber also contains a house light and sonalert. A steel grid floor in the main chamber is wired for presentation of electric shock. Each trial consists of a fifteen-second warning tone (conditioned stimulus), continuing for an additional fifteen seconds accompanied by electric shock (unconditioned stimulus). A response (jumping onto the exposed shelf of the upper chamber) occurring during the initial fifteen-second warning tone is considered an avoidance response, while a response occurring during shock delivery is considered an escape response. Trials are presented on a fixed interval schedule of one minute. The session consists of thirty-six trials. […]
The following experimental parameters are recorded by computer: (1) the number of avoidance responses, (2) the number of escape responses, and (3) the number of trials in which no response occurred.
Response counts are summed over all subjects at a given dose. […] This number is expressed as a percentage of the total trials. […]

[4] = po, perorally administered, discrete trial, rats, read-out: AB50 (the source's name)

Sequence of limbic D-2 dopamine receptor (P61169 whole entry): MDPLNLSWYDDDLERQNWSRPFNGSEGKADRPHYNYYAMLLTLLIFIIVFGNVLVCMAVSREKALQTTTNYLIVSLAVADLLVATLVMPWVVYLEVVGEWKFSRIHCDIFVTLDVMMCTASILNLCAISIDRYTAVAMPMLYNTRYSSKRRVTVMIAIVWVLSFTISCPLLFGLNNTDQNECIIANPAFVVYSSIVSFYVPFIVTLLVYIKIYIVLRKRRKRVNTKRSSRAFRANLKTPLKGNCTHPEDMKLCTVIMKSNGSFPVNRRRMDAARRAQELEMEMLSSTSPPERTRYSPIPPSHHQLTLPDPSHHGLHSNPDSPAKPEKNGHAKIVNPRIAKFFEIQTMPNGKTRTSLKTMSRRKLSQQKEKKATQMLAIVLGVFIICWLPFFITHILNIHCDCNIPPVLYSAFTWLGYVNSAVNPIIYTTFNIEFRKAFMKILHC

Ki [1]	SMILES	ED50 [2, 4]	Activity at 40 mg/kg [2]	also measured
507 nM	CC1=C(C)CC2C(C1)C(=O)N(CCCCN1CCN(c3nccnc3Cl)CC1)S2(=O)=O (stereo not drawn) [Example 13, 2-[4-[4-(3-Chloro-2-pyrazinyl)-1-piperazinyl]butyl]-3a,4,7,7a-tetrahydro-5,6-dimethyl-1,2-benzisothiazol-3(2H)-one 1,1-dioxide, hydrochloride, hydrate]			
	CC1=C(C)CC2C(C1)C(=O)N(CCCCN1CCN(c3ncccn3)CC1)S2(=O)=O (stereo not drawn) [Example 3, 3a,4,7,7a-Tetrahydro-5,6-dimethyl-2-[4-[4-(2-pyrimidinyl)-1-piperazinyl]butyl]-1,2-benzisothiazol-3(2H)-one 1,1-dioxide dihydrochloride]			inhibition at 1 µM ([1]; read-out: Limbic D-2 Binding, % inhibition at 1 μM): 21%
	O=C1[C@@H]2[C@@H]([C@H]3CC[C@@H]2O3)S(=O)(=O)N1CCCCN1CCN(c2cncc(Cl)n2)CC1 (relative stereo) [Example 8, 3aα,4β,7β,7aα-hexahydro-2-[4-[4-(6-chloro-2-pyrazinyl)-1-piperazinyl]butyl]-4,7-epoxy-1,2-benzisothiazol-3(2H)-one 1,1-dioxide, hydrochloride]	34.3 mg/kg		inhibition at 10 µM ([1]; read-out: Limbic D-2 Binding, % inhibition at 10 μM): 36%
1100 nM	O=C1C2C3C=CC(C3)C2S(=O)(=O)N1CCCCN1CCN(c2ncccn2)CC1 (stereo not drawn) [Example 1, 3a,4,7,7a-Tetrahydro-2-[4-[4-(2-pyrimidinyl)-1-piperazinyl]butyl]-4,7-methano-1,2-benzisothiazol-3(2H)-one 1,1-dioxide, dihydrochloride, hemihydrate]	45.4 mg/kg		
	O=C(CCCN1CCC(O)(c2ccc(Cl)cc2)CC1)c1ccc(F)cc1 [Haloperidol, reference compound]			AB50 (standard compounds) ([2]; i.p., discrete trial, rats): 0.18 mg/kg i.p.
493 nM	O=C1c2ccccc2S(=O)(=O)N1CCCCN1CCN(c2nccnc2Cl)CC1 [Example 11, 2-[4-[4-(3-Chloro-2-pyrazinyl)-piperazinyl]butyl]-1,2-benzisothiazol-3(2H)-one 1,1-dioxide, hydrochloride]			
	O=C(CCCN1CCC2(CC1)C(=O)NCN2c1ccccc1)c1ccc(F)cc1 [Spiperone, reference compound]			ED50 ([2]; ip, discrete trial, rats, read-out: AB50 (standard compounds)): 0.13 mg/kg
1410 nM	O=C1C2C3C=CC(C4CC34)C2S(=O)(=O)N1CCCCN1CCN(c2ncccn2)CC1 (stereo not drawn) [Example 6, 4,4a,5,5a,6,6a-hexahydro-2-[4-[4-(2-pyrimidinyl)-1-piperazinyl]butyl]-4,6-etheno-2H-cyclopropa[f][1,2]benzisothiazol-3(3aH)-one 1,1-dioxide,dihydrochloride]			
1030 nM	O=C1C2C3C=CC(C4CC34)C2S(=O)(=O)N1CCCCN1CCN(c2cncc(Cl)n2)CC1 (stereo not drawn) [Example 18, 2-[4-[4-(6-Chloro-2-pyrazinyl)-1-piperazinyl]butyl]-4,4a,5,5a,6,6a-hexahydro-4,6-etheno-2H-cycloprop[f]-1,2-benzisothiazol-3(2H)-one 1,1-dioxide, hydrochloride]		showed activity	
	Cl.Cl.O=C1C2C3C=CC(C3)C2S(=O)(=O)N1CCCCN1CCN(c2cncc(Cl)n2)CC1 (stereo not drawn) [Example 14, 2-[4-[4-(6-Chloro-2-pyrazinyl)-1-piperazinyl]butyl]-3a,4,7,7a-tetrahydro-4,7-methano-1,2-benzisothiazol-3(2H)-one 1,1-dioxide, dihydrochloride]	78.2 mg/kg		
	O=C1[C@@H]2[C@@H]([C@@H]3CC[C@H]2O3)S(=O)(=O)N1CCCCN1CCN(c2cncc(Cl)n2)CC1 (relative stereo) [Example 20, (3aα,4α,7α,7aα)-2-[4-[4-(6-Chloro-2-pyrazinyl)-1-piperazinyl]butyl]hexahydro-4,7-epoxy-1,2-benzisothiazol-3(2H)-one 1,1-dioxide, hydrochloride]		showed activity	
	O=C1[C@H]2[C@H]([C@@H]3CC[C@H]2O3)S(=O)(=O)N1CCCCN1CCN(c2cnccn2)CC1 (relative stereo) [Example 19, (3aα,4β,7β,7aα)-Hexahydro-2-[4-[4-(2-pyrazinyl)-1-piperazinyl]butyl]-4,7-epoxy-1,2-benzisothiazol-3(2H)-one 1,1-dioxide, dihydrochloride, hemihydrate]	47.9 mg/kg		
	Cl.O=C1C2C3CCC(C3)C2S(=O)(=O)N1CCCCN1CCN(c2cncc(Cl)n2)CC1 (stereo not drawn) [Example 16, 2-[4-[4-(6-Chloro-2-pyrazinyl)-1-piperazinyl]butyl]-3a,4,5,6,7,7a-hexahydro-4,7-methano-1,2-benzisothiazol-3(2H)-one 1,1-dioxide, hydrochloride]		showed activity	
	O=C1CC2(CCCC2)CC(=O)N1CCCCN1CCN(c2ncccn2)CC1 [Buspirone, 8-[4-[4-(2-pyrimidinyl)-1-piperazinyl]butyl]-8-azaspiro[4.5]decane-7,9-dione]	32 mg/kg		Activity in apomorphine-induced stereotyped behavior assay (dopamine receptor): inactive; ED50 [3]: 9.44 mg/kg
	O=C1C2C3CCC(C3)C2S(=O)(=O)N1CCCCN1CCN(c2ncccn2)CC1 (stereo not drawn) [Example 15, 2-[4-[4-(2-Pyrimidinyl)-1-piperazinyl]butyl]-3a,4,5,6,7,7a-hexahydro-4,7-methano-1,2-benzisothiazol-3(2H)-one 1,1-dioxide, dihydrochloride, hemihydrate]		showed activity	
	O=C1C2C3CCC(C4CC43)C2S(=O)(=O)N1CCCCN1CCN(c2ncccn2)CC1 (stereo not drawn) [Example 17, Hexahydro-2-[4-[4-(2-pyrimidinyl)-1-piperazinyl]butyl-4,6-ethano-2H-cycloprop[f]-1,2-benzisothiazol-3(2H)-one 1,1-dioxide, hydrochloride]		showed activity	
	O=C1C2C3C=CC(C4C=CC43)C2S(=O)(=O)N1CCCCN1CCN(c2ncccn2)CC1 (stereo not drawn) [Example 21, 3a,4,4a,6a,7,7a-Hexahydro-2-[4-[4-(2-pyrimidinyl)-1-piperazinyl]butyl]-4,7-ethenocyclobut[f]-1,2-benzisothiazol-3(2H)-one 1,1-dioxide, dihydrochloride]	39.4 mg/kg	showed activity	

SMILES	Ki [1]	ED50 [2, 4]	Activity at 40 mg/kg [2]	also measured
O=C1C2C3C=CC(CC3)C2S(=O)(=O)N1CCCCN1CCN(c2ncccn2)CC1 (stereo not drawn) [Example 2, 3a,3,7,7a-Tetrahydro-2-[4-[4-(2-pyrimidinyl)-1-piperazinyl]butyl]-4,7-ethano-1,2-benzisothiazol-3(2H)-one 1,1-dioxide, dihydrochloride, hydrate]	2000 nM			
